Measured values: the supplement of paper PMC10307832

How the values were obtained:
Test in all cases: relative viability (nuclei count vs DMSO), 5 days (fraction); higher = more cells survive
TGX 221 + Crizotinib = compound: CC1=CN2C(=O)C=C(N=C2C(=C1)C(C)NC3=CC=CC=C3)N4CCOCC4 [TGX 221] + C[C@@H](Oc1cc(-c2cnn(C3CCNCC3)c2)cnc1N)c1c(Cl)ccc(F)c1Cl [Crizotinib] (partner 1 µM)
Summary of the method: (§1)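 Each reported value is a median over duplicate plates. It expresses relative viability: treated-well nuclei count divided by vehicle-well nuclei count. Lung cancer cell lines in 1536-well plates were dosed by pin tool a day after seeding, alone with one drug or with a fixed anchor-drug dose plus five library-drug doses (not always all listed) in √10 steps, and nuclei were counted after 5 days.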

[1] = compound: C1=CC=C(C(=C1)C2=CC=C(C=C2)C3=CSC4=C3C(=C(C(=O)N4)C#N)O)O + N=C(N)NC(=N)NCCc1ccccc1 [Phenformin] (partner 250 µM)
Summary of the method: as §1

TGX 221 + Phenformin = compound: CC1=CN2C(=O)C=C(N=C2C(=C1)C(C)NC3=CC=CC=C3)N4CCOCC4 [TGX 221] + N=C(N)NC(=N)NCCc1ccccc1 [Phenformin] (partner 250 µM)
Summary of the method: as §1

[2] = compound: O=C(CCCCCCNC(=O)c1cnc(N(c2ccccc2)c2ccccc2)nc1)NO [Ricolinostat] + Cc1cc(Nc2cc(N3CCN(C)CC3)nc(Sc3ccc(NC(=O)C4CC4)cc3)n2)n[nH]1 [Tozasertib] (partner 0.1 µM)
Summary of the method: as §1

Cell Line | relative viability (TGX 221 + Crizotinib; first compound 0.08 µM) | relative viability (TGX 221 + Crizotinib; first compound 0.253 µM) | relative viability (TGX 221 + Crizotinib; first compound 0.8 µM) | relative viability (TGX 221 + Crizotinib; first compound 2.53 µM) | relative viability (TGX 221 + Crizotinib; first compound 8 µM) | relative viability ([1]; first compound 0.08 µM) | relative viability ([1]; first compound 0.253 µM) | relative viability ([1]; first compound 0.8 µM) | relative viability ([1]; first compound 2.53 µM) | relative viability ([1]; first compound 8 µM) | relative viability (TGX 221 + Phenformin; first compound 0.08 µM) | relative viability (TGX 221 + Phenformin; first compound 0.253 µM) | relative viability (TGX 221 + Phenformin; first compound 0.8 µM) | relative viability (TGX 221 + Phenformin; first compound 2.53 µM) | relative viability (TGX 221 + Phenformin; first compound 8 µM) | relative viability ([2]; first compound 0.08 µM) | relative viability ([2]; first compound 0.253 µM) | relative viability ([2]; first compound 0.8 µM) | relative viability ([2]; first compound 2.53 µM)
NCI-H1734 | 0.652 | 0.643 | 0.643 | 0.588 | 0.537 | 0.368 | 0.381 | 0.41 | 0.377 | 0.319 | 0.379 | 0.362 | 0.395 | 0.413 | 0.406 | 0.241 | 0.29 | 0.231 | 0.292
NCI-H2087 | 1.02 | 1.01 | 0.802 | 0.979 | 1.19 | 0.441 | 0.481 | 0.464 | 0.366 | 0.362 | 0.425 | 0.455 | 0.524 | 0.472 | 0.471 |  | 0.253 | 0.164 | 0.168
NCI-H522 |  |  |  |  |  | 0.643 | 0.613 | 0.747 | 0.571 | 0.63 | 0.699 | 0.581 | 0.597 | 0.669 | 0.657 | 0.616 | 0.565 | 0.54 | 0.641
NCI-H1666 | 1 | 0.933 | 0.988 | 0.935 | 0.957 | 0.578 | 0.739 | 0.547 | 0.532 | 0.484 | 0.556 | 0.52 | 0.598 | 0.561 | 0.529 | 0.544 | 0.591 | 0.489 | 0.358
NCI-H1915 | 0.864 | 0.83 | 0.942 | 0.9 | 0.813 | 0.342 | 0.32 |  | 0.376 | 0.325 | 0.347 | 0.358 | 0.359 | 0.347 | 0.374 | 0.438 | 0.455 | 0.385 | 0.377
RERF-LC-KJ | 0.736 | 0.832 | 0.752 | 0.781 | 0.795 | 0.397 | 0.492 | 0.412 | 0.454 | 0.352 | 0.439 | 0.434 | 0.398 | 0.377 | 0.326 | 0.531 | 0.406 | 0.324 | 0.265
NCI-H1623 |  |  |  |  |  | 0.623 | 0.623 | 0.569 | 0.568 | 0.534 | 0.543 | 0.602 | 0.62 | 0.566 | 0.555 | 0.489 | 0.462 | 0.477 | 0.424
NCI-H520 | 0.532 | 0.724 | 0.68 | 0.572 | 0.398 | 0.254 | 0.535 | 0.757 | 0.542 | 0.467 | 0.469 | 0.352 | 0.355 | 0.379 | 0.315 |  | 0.374 | 0.345 | 0.345
NCI-H2085 | 0.804 | 0.878 | 0.915 | 0.806 | 0.505 | 0.765 | 0.951 | 0.665 | 0.685 | 0.568 | 0.817 | 0.562 | 0.588 | 0.462 | 0.425 | 0.688 | 0.731 | 0.613 | 0.523
